Type in all cases: cell-based
For one experiment, the system named is salivary sediment. The experiment is described as follows: pH fall and rise with individual peptides of 2-4 amino acid units in salivary sediment-glucose mixture. The note with it: for pH rising to / pH drop to: salivary sediment 16.7% (v/v), glucose 2.8 mM, peptide 3.3 mM; for pH rising to: measured through the fourth hour; for pH drop to: pH starts slightly above 7. As to the method: Four sets of three 10×75 mm test tubes were provided with 0.2 ml of 8.4 mM (millimolar) of aqueous glucose solution. Set I was provided with 0.2 ml of pooled supernatant saliva. […] Set IV was provided with 0.2 ml of distilled water. […] The concentration of the peptide in the combined composition was 3.3 mM. […] The pH values are as follows: Extensive testing of individual peptides of 2-4 amino acid units as could reasonably be obtained or synthesized was done. The tests were carried out under the same conditions as Sets I-IV. The salivary sediment was present in an amount of 16.7% (v/v), glucose 2.8 mM and the peptide 3.3 mM in the final composition. Duplicate runs without peptide were run parallel to the others as a double check. […] An effective pH rise factor begins to reverse the fall within the first hour. Measurement continues through the fourth hour.

Experiment [1] concerns oral bacteria. As to the kind of experiment: pH of glucose solution incubated with oral bacteria suspension, Sets I-IV. The note with it: 37° C.; for pH at 0 minutes: 0 time when bacteria added, test substance 3.3 mM in combined composition. As to the method: Experiments were performed in vitro using supernatant saliva. The saliva was obtained from random donors whose salivary secretions were paraffin block stimulated. The saliva donations were pooled before and after sediment removal.
Four sets of three 10×75 mm test tubes were provided with 0.2 ml of 8.4 mM (millimolar) of aqueous glucose solution. Set I was provided with 0.2 ml of pooled supernatant saliva. Set II was provided with 0.2 ml of 9.9 mM of the peptide glycine-glycine-arginine. Set III was provided with 0.2 ml of 9.9 mM arginine. Set IV was provided with 0.2 ml of distilled water. Sequentially 0.2 ml of a 50:50 aqueous suspension of oral bacteria was added to each test tube. The concentration of the peptide in the combined composition was 3.3 mM. The prepared test tubes were kept at 37° C. in a water bath. pH readings were taken at 0 time when the bacteria was added and at 15, 30, 45, 60, 90, 120, 180 and 240 minutes.

The test system of experiment [2] is oral bacteria. The experiment is described as above. The note with it: 37° C., 3.3 mM.

Residues, ends and D or L forms follow the SMILES beside them.

Take `N=C(N)NCCC[C@H](N)C(=O)O.NCC(=O)O.NCC(=O)O` [Gly-Gly-Arg, glycine-glycine-arginine]: in the experiment with salivary sediment, the “pH rising to” value worked out at 7.5 and the “pH drop to” value is reported as 5.5. Further, the “pH at 0 minutes” value in the experiment with oral bacteria [1] was determined as 7.4. In addition, in the experiment on oral bacteria [1] (3.3 mM), the “pH at 15 minutes” value was 6.8, the “pH at 45 minutes” value amounted to 6.4, the “pH at 60 minutes” value was 6.6 and the “pH at 90 minutes” value worked out at 6.6. In the experiment with oral bacteria [1] (3.3 mM), the “pH at 120 minutes” value is given as 6.7, the “pH at 180 minutes” value is 7.2 and the “pH at 240 minutes” value was found to be 7.6. Also, the “pH at 39 minutes” value with oral bacteria [1] (39 minutes, 3.3 mM) was determined as 6.6.

Turning to `N=C(N)NCCC[C@H](NC(=O)[C@H](CCCCN)NC(=O)CNC(=O)CN)C(=O)O` [Gly-Gly-Lys-Arg, H-glycine-glycine-lysine-arginine-OH] (H-GGKR-OH), in the experiment on salivary sediment, the “effectiveness as pH rise factor” value was “proven effective”, the “pH rising to” value is recorded as 8.4 and the “pH drop to” value is 6.4.

Regarding `N=C(N)NCCC[C@H](N)C(=O)O` [Set III, arginine, reference compound], the “pH at 39 minutes” value in the experiment on oral bacteria [2] came out at 5.4. Further, the “pH at 0 minutes” value in the experiment with oral bacteria [1] is 7.3. In the experiment with oral bacteria [1] (3.3 mM), the “pH at 15 minutes” value worked out at 5.8, the “pH at 45 minutes” value is recorded as 5.2, the “pH at 60 minutes” value worked out at 4.9 and the “pH at 90 minutes” value was 5.0. Besides, in the experiment with oral bacteria [1] (3.3 mM), the “pH at 120 minutes” value came out at 5.0, the “pH at 180 minutes” value was found to be 5.3 and the “pH at 240 minutes” value came to 5.8.

For the origin of these results see US4225579A, “Means and method for improving defenses against caries” (priority 1979, dated 1980).
